Results on six molecules are retold here after ChEMBL document CHEMBL1201862, “PubChem BioAssay data set” (2004).

As usually defined, the EC50 is the concentration giving half of the maximal effect. One may read the IC50 as the concentration at which inhibition is half-maximal. The term AC50 denotes the midpoint of the concentration-response curve, whichever way the signal moves.

The nature of assay [1]: inhibitors of firefly luciferase expression or activity, dose response, H4 neuroglioma cells, luminescence (AID 1990). The format is functional, cell-based.
Assay [2] is described as follows: Luminescence Cell-Based Dose Response HTS to Identify Inhibitors of 5'UTR Stem-Loop Driven Prion Protein mRNA Translation in H4 Neuroglioblastoma Cells. [Related pubchem assays: 1827 (Project Summary), 1813 (Primary HTS)]. The format is functional.
Assay [3] has as its target T1, Heat shock factor protein 1 (Mus musculus, UniProt P38532).
T1 sequence (P38532 whole entry): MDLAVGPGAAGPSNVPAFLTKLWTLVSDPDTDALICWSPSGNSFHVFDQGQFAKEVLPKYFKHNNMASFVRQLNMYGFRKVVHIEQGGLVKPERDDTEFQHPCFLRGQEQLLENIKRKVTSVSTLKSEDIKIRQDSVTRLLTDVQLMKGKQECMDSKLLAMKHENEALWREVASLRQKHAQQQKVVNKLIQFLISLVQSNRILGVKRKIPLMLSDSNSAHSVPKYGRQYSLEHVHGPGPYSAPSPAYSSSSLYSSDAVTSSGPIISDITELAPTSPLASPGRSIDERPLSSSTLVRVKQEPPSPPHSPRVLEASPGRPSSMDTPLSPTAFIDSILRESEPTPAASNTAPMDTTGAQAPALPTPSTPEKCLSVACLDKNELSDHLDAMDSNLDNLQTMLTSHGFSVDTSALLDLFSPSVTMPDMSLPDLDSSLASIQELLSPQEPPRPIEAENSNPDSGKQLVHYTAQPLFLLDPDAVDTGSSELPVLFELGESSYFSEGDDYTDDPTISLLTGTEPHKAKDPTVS
The assay is described as follows: inhibition of MG132-induced HSE-luciferase signal, confirmation, cell-based, NIH3T3, luminescence, dose retest (AID 2382).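 Further: NIH3T3 fibroblasts with HSF1-driven luciferase reporter stressed by proteasome inhibitor MG132; luminescence from HSF1-driven luciferase expression after 8 hours of MG132 stress.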 It counts as functional.

Assay [4] addresses Induced myeloid leukemia cell differentiation protein Mcl-1 (Homo sapiens, UniProt Q07820). It counts as functional.
In assay [5] the test system is BJ. The assay is described as follows: cells. It counts as functional, cell-based. Particulars: Homo sapiens.
For assay [6], the target named is Heat shock protein HSP 90-alpha (Homo sapiens, UniProt P07900). The format is functional, organism-based.
Assay [7] concerns CHO. The assay is described as follows: cytotoxicity in TLR9-MyD88 CHO cells, dose response, cytotoxicity control for TLR9-MyD88 binding inhibitor project, cell-based, luminescence (AID 588339).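 Further: CHO cells stably coexpressing TLR9 and MyD88 fusions from primary screen; compound exposure lasted 48 hours before viability readout.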 The format is functional, hamster. The conditions noted are these: Cricetulus griseus.
Assay [8] has as its target Delta-type opioid receptor (Homo sapiens, UniProt P41143). Nature of the assay: Counterscreen for agonists of heterodimerization of the mu 1 (OPRM1) and delta 1 (OPRD1) opioid receptors: Luminescence-based cell-based high throughput dose response assay to identify agonists of OPRD1 homodimerization. [Related pubchem assays (depositor defined):AID504326, AID504355, AID504692, AID504904, AID504905]. The format is functional. (The purpose of a counterscreen is to sort out artefacts and off-target activity.)

For assay [9], the target named is Mu-type opioid receptor (Homo sapiens, UniProt P35372). The assay is described as follows: Counterscreen for agonists of heterodimerization of the mu 1 (OPRM1) and delta 1 (OPRD1) opioid receptors: Luminescence-based cell-based high throughput dose response assay to identify agonists of OPRM1 homodimerization. The format is functional.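 Further: U2OS cells expressing OPRM1 and beta-arrestin as split beta-galactosidase partners.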
Assay [10] deals with 5-hydroxytryptamine receptor 5A (Homo sapiens, UniProt P47898). The assay is described as follows: Counterscreen for agonists of OPRM1-OPRD1 heterodimerization: luminescence-based cell-based high throughput dose response assay to identify agonists of 5-hydroxytryptamine (serotonin) 5A receptor (HTR5A). [Related pubchem assays (depositor defined):AID504326, AID504355, AID504692, AID504904, AID504905]. The format is functional.

Assay [11] in a line: CEM21 lymphoblast cell cytotoxicity, dose response, cytotoxicity control for viral fusion inhibitor project, CellTiter-Glo luminescence, cherry-picked (AID 652042).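 Further: potency for signal decrease meaning cytotoxicity.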 The format is functional, cell-based. (Cellular ATP, detected with luciferase, serves as a proxy for viable cell number.)
For assay [12], the target named is SUMO-activating enzyme (Homo sapiens, UniProt Q9UBT2). The assay is described as follows: inhibitors of in vitro SUMOylation cascade, primary screen, biochemical, HTRF, uHTS (AID 2006). The format is protein-complex assay.
The target in assay [13] is T2, Ubiquitin-conjugating enzyme E2 N (Homo sapiens, UniProt P61088).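 Further: Dose-response confirmation in a TR-FRET assay detecting UBC13-driven polyubiquitin chain formation, inhibition measured.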
T2 sequence (P61088 whole entry): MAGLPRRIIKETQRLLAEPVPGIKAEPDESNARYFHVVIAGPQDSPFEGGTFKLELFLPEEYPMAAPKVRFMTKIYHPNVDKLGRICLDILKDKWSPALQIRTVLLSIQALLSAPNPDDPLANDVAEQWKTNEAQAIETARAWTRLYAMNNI
It counts as functional.

A short description of assay [14]: cells. It counts as functional.
In assay [15] the target is T3, Insulin-degrading enzyme (Homo sapiens, UniProt P14735).
T3 sequence (P14735 whole entry): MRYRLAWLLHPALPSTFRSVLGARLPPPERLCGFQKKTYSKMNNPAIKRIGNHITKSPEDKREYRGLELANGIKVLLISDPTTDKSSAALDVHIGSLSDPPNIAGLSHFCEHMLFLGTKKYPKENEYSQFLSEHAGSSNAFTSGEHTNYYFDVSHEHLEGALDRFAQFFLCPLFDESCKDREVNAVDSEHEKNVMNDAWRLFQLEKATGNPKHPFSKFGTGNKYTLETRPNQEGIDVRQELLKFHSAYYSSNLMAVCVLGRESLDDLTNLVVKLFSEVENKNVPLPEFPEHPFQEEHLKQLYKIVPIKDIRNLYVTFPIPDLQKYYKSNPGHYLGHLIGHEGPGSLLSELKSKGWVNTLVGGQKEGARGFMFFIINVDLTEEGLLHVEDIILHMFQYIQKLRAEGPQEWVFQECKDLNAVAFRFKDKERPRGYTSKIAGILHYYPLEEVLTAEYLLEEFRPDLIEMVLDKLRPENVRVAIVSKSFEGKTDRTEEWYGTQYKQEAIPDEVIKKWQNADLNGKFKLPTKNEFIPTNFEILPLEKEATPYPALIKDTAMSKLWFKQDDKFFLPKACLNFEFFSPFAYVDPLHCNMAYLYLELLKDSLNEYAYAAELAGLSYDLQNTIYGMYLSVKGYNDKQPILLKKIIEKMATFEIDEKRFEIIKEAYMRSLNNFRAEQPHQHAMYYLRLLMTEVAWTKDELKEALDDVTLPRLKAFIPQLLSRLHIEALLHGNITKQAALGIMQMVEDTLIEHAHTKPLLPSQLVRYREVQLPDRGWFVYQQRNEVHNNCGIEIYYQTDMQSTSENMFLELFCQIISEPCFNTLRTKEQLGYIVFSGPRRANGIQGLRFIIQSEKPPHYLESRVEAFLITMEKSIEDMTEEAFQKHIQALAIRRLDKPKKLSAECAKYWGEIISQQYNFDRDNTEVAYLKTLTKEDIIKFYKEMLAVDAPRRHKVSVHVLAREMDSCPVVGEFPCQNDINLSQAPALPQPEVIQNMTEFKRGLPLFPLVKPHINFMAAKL
The assay is described as follows: activators of endogenous IDE in HEK cells, dose response, cell-based, fluorescence polarization (AID 588439). The format is functional.

Assay [16] concerns HEK293. Nature of the assay: optical interference in Abeta FP readout, dose response, artefact control for IDE activator project, biochemical, fluorescence polarization (AID 588442). It counts as functional, cell-based. The conditions noted are these: Homo sapiens. For orientation: Polarisation of emitted light reports the rotation of a fluorescent probe.

Activity calls are given as the source filed them. A value given as a limit tells only on which side of the number the result lay.

Chain of Delta-type opioid receptor (P41143 whole entry): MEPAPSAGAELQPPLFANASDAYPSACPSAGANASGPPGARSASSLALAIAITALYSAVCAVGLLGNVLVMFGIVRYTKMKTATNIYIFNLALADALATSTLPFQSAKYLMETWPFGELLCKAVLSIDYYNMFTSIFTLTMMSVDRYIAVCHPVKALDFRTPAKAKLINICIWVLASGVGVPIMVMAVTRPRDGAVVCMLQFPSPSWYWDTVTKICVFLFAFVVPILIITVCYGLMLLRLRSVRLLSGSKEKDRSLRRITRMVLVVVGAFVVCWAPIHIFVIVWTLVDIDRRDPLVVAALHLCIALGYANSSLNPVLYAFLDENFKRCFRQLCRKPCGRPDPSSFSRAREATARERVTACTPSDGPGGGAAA
Chain of 5-hydroxytryptamine receptor 5A (P47898 whole entry): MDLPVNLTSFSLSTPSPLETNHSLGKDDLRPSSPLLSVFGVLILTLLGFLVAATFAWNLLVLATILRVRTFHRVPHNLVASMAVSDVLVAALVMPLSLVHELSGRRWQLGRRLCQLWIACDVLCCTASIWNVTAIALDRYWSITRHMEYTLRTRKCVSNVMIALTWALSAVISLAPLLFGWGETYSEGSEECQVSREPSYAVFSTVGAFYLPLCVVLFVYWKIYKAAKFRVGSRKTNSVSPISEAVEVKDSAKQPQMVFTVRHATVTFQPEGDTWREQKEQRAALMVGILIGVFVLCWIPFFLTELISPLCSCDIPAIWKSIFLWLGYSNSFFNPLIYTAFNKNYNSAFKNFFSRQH
Chain of SUMO-activating enzyme (Q9UBE0 whole entry): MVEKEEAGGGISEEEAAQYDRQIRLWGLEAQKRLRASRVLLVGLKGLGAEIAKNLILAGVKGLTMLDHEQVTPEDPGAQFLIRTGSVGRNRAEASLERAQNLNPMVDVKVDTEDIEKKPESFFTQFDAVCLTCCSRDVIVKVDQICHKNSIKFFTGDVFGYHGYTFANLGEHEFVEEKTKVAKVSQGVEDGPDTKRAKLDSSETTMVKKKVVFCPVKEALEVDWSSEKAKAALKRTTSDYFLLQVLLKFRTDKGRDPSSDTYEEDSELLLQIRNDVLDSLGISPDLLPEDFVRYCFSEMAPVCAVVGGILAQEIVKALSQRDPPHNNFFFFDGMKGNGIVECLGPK
Chain of SUMO-activating enzyme (Q9UBT2 whole entry): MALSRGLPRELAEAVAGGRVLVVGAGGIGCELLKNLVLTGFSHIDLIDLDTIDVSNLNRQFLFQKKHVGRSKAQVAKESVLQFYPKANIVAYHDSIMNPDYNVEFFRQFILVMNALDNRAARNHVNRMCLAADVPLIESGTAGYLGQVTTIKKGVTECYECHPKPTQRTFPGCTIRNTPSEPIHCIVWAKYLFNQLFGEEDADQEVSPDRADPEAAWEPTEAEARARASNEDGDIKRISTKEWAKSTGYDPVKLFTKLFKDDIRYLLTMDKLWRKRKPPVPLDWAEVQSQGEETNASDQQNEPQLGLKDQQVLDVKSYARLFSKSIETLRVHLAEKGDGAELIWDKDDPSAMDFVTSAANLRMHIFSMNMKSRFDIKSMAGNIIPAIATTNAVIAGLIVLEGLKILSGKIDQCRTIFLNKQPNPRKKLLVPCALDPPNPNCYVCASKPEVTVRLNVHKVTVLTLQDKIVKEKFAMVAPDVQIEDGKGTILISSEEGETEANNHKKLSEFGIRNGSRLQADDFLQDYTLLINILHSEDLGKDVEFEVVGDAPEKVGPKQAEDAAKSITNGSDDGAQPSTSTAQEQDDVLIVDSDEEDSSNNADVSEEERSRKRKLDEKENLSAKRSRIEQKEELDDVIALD
Chain of Mu-type opioid receptor (P35372 whole entry): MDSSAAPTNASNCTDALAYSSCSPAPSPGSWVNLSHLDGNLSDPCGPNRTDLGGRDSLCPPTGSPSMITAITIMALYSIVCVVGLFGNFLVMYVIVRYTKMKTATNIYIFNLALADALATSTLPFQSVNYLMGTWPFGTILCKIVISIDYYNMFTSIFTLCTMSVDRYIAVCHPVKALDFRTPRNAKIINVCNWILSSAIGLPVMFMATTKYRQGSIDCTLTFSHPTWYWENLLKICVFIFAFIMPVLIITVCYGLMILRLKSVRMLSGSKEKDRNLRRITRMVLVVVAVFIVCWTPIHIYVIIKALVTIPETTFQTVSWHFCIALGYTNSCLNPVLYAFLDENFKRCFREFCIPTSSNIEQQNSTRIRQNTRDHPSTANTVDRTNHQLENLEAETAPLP
Chain of Induced myeloid leukemia cell differentiation protein Mcl-1 (Q07820 whole entry): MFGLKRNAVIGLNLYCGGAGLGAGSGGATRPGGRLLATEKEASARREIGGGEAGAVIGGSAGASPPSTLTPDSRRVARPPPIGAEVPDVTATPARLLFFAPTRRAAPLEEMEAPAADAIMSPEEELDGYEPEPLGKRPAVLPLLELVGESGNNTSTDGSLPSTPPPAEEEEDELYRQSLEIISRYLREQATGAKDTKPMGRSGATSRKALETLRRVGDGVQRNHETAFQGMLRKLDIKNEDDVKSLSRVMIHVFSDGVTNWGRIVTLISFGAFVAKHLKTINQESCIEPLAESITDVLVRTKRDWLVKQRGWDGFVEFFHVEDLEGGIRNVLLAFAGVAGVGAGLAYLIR

For the molecule `CCOC(=O)c1c(C)[nH]c2c1-c1ccccc1C(=O)C2=O`, the EC50 in [1] is 3.02 µM (active); in [2], 1.35 µM (active); in assay [3] it was 1.57 µM (active).

Regarding `COc1ccc2c(c1)CCC(/C=N/c1ccc3c(c1)OCO3)=C2O`, in [4], the IC50 is 16.7 µM (not active).

With `CC(=O)NC(c1ccc2ccccc2c1)c1ccc2cccnc2c1O` (stereo unspecified), the EC50 in assay [5] is 6.35 µM (active). Also, the AC50 in assay [6] is 1.98 µM (active).

Consider `CCc1ccc(Nc2n[n+](-c3ccccc3)c(-c3c(Cl)cccc3Cl)s2)cc1`, for which, in [7], the concentration for half-maximal inhibition (IC50) is 6.79 µM (active). In addition, the EC50 was 14.2 µM (inactive) in assay [8], > 92.5 µM (inactive) in assay [9] and > 92.5 µM (inactive) in assay [10]. In assay [11], the AC50 was 10.8 µM (active).

`CCOC(=O)c1c(C)oc2c1c(/C=N/CCC(=O)O)c(O)c1ccccc12`: in [12], the IC50 was 28.8 µM (active).

In the case of `CCOC(=O)C1=C(c2ccccc2)N=C(N)NC1c1ccc(OCc2ccc(Cl)cc2)c(OC)c1` (stereo unspecified), the IC50 in assay [13] is > 20 µM (inactive); in assay [14], 9.22 µM (active). In addition, the values for the EC50 in assay [15] and in assay [16] were 42.5 µM (inactive) and > 55.9 µM (inactive), respectively.
